Experimental data as given in US8642774B2, “Compounds” (Boehringer Ingelheim International GmbH, priority 2011, dated 2014).

Target: T1, human recombinant mGluR5 (Homo sapiens, UniProt P41594)
T1 construct: expressed in transfected cells; host or cells: HEK 293 cell line, cultured with tetracycline, hygromycin and geneticin; tetracycline is withdrawn 3-7 days before the assay
Assay: positive modulation of mGluR5, calcium based FLIPR assay
Format: cell-based
Settings: EC50 of the modulation; HEK 293 cell line expressing human recombinant mGluR5; peak height of Ca fluorescence signal after glutamate at approx. 5% basal stimulation; read-out: EC50
Procedure: The positive modulation of mGluR5 is measured in a HEK 293 cell line expressing human recombinant mGluR5 and is detected with calcium based FLIPR assay. The cells are cultured with DMEM supplemented with 10% FCS, 2 μg/mL tetracycline, 100 μg/mL hygromycin and 500 μg/mL gneticin. The cell culture media is exchanged for tetracycline-free cell culture media 3-7 days before the assay. One day before the assay the cell culture medium is exchanged to DMEM without glutamine and phenol red and supplemented with 10% FCS, 100 μg/mL hygromycin and 500 μg/mL geneticin. On the assay day, the medium of the subconfluent cultures is removed and the cells are detached by addition of 2.5 ml EDTA (0.02%) per 175 cm2 culture flask for 1 minute. The cells are resuspend in Ringer solution (140 mM NaCl, 5 mM KCl, 2.5 mM CaCl2, 1.5 mM MgCl2, 5 mM Glucose, 10 mM Hepes; adjusted to pH 7.4 with NaOH), pooled and Ringer solution added to adjust the volume to 50 mL. The cell suspension is centrifuged for 5 min at 1500 U/min (425 g). The supernatant is removed and the cells washed a second time with 50 ml fresh Ringer solution and centrifuged again as before. The supernatant is again removed and the pellet resuspended in Ringer solution to 1,000,000 cells/ml (1×10^6 cells/mL). The cells are plated onto BD BioCoat Poly-D-Lysine 384 well plates (20.000 cells/well; 20 μl/well). The lid covered plates are then incubated until use at 37° C./10% CO2. For dye loading, 20 μl of Calcium-4 assay kit solution (prepared according to the manufacturer's description in Ringer solution) are added to the cells and the plates are incubated for 80 min 37° C. and then 10 min at room temperature. • Controls, Compound dilution and assay execution: • Each assay plate contained wells with “high” and “low” controls:
Low controls 1% DMSO/ringer solution+basal glutamate activation (defined as 100% CTL).
High controls 10 μM CDPPB+basal glutamate activation (defined as 200% CTL).
Test compounds are dissolved and diluted in DMSO to 100-fold the desired concentrations. In a second step, the compounds are diluted in Ringer solution such that the compounds are 4-fold more concentrated than the desired final assay concentration. The final DMSO concentration was 1%.
20 μl of each compound solution are then transferred to the assay plate and the Ca2+ kinetic is measured to determine any intrinsic compound activity. After 5 min incubation in the FLIPR device, the second stimulation with 20 μl of glutamate in Ringer solution (glutamate concentration adjusted to approximately 5% basal stimulation of the maximal possible glutamate effect) is added and the kinetic Ca2+ response of the wells was measured for the modulation effect.
The peak height of the Ca release related fluorescence signal (9-66) is used for the EC50. The EC50 of the modulation is calculated over a nonlinear regression with GraphPad Prism (Table 1).

T1 sequence (P41594 21-1212): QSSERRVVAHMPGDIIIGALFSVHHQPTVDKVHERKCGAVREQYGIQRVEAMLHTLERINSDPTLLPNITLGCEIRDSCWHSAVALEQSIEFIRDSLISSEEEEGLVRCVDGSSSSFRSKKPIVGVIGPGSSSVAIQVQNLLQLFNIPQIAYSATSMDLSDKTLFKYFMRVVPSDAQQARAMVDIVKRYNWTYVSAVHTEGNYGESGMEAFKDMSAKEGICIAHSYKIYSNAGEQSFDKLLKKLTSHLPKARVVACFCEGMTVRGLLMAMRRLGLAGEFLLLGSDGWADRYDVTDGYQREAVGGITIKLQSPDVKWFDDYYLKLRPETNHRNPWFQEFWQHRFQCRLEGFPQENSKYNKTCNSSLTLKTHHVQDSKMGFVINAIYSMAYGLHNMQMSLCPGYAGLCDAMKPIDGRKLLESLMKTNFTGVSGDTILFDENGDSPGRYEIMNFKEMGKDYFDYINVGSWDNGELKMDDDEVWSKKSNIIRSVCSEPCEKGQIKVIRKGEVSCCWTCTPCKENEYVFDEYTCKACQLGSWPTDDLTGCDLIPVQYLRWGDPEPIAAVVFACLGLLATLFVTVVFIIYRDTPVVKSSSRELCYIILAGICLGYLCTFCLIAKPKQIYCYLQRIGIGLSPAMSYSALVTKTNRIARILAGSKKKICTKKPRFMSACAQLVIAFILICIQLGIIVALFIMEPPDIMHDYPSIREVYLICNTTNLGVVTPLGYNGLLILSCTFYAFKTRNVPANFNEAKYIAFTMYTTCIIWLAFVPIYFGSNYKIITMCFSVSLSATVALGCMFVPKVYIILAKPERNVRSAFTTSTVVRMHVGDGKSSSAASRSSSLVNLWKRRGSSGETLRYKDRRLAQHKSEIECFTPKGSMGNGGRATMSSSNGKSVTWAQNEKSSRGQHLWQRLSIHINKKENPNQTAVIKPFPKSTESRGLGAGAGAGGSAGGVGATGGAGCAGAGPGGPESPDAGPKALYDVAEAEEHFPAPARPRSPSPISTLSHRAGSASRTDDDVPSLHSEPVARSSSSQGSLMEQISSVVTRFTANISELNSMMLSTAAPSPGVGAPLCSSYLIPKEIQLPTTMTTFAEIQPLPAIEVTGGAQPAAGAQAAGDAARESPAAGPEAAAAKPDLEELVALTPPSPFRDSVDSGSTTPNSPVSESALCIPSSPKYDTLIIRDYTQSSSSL

SMILES | EC50 [nM]
O=C(Cn1nc(-c2ccc(F)cc2)nc1-c1ccc(F)cc1)N1CC=C(c2ccccc2)CC1 [Example 7.02.66.] | 559
O=C(Cn1nc(-c2ccc(F)cc2)nc1-c1ccc(F)cc1)N1Cc2ccncc2C1 [Example 7.02.40.] | 1760
Cc1nc2c(o1)CCN(C(=O)Cn1nc(-c3ccc(F)c(C)c3)nc1-c1ccccc1)CC2 [Example 7.02.86.] | 28
Cc1nnc(C2CCN(C(=O)Cn3nc(-c4ccc(F)cc4)nc3-c3ccc(F)cc3)CC2)o1 [Example 7.02.59.] | 450
N#Cc1ccc2c(c1)CCN(C(=O)Cn1nc(-c3ccc(F)cc3)nc1-c1ccc(F)cc1)C2 [Example 7.02.48.] | 972
O=C(Cn1nc(-c2ccc(F)cc2)nc1-c1ccc(F)cc1)N1CCc2ncsc2CC1 [Example 7.03.011.] | 453
O=C(Cn1nc(-c2ccc(F)cc2)nc1-c1ccc(F)cc1)N1CCC(c2ncno2)CC1 [Example 7.02.57.] | 1450
Cc1nc2c(s1)CN(C(=O)Cn1nc(-c3ccc(F)cc3)nc1-c1ccc(F)cc1)CC2 [Example 7.02.56.] | 932
O=C(Cn1nc(-c2ccc(F)cc2)nc1-c1ccc(F)cc1)N1CCC(N2Cc3c(Cl)cccc3NC2=O)CC1 [Example 7.02.35.] | 1420
O=C(Cn1nc(-c2ccc(F)cc2)nc1-c1ccc(F)cc1)N1CCC(Oc2ccccc2)CC1 [Example 7.03.005.] | 958
Cc1nc2c(s1)CC(C)N(C(=O)Cn1nc(-c3ccc(F)c(C)c3)nc1-c1ccccc1)CC2 (centres unmarked) [Example 7.02.81.] | 175
Cc1nc(C2CCN(C(=O)Cn3nc(-c4ccc(F)cc4)nc3-c3ccc(F)cc3)CC2)oc1C [Example 7.03.003.] | 851
CC(C)c1ncc2c(n1)CCN(C(=O)Cn1nc(-c3ccc(F)cc3)nc1-c1ccc(F)cc1)C2 [Example 7.02.32.] | 468
O=C(c1ccccc1)C1CCN(C(=O)Cn2nc(-c3ccc(F)cc3)nc2-c2ccc(F)cc2)CC1 [Example 7.02.71.] | 441
O=C(Cn1nc(-c2ccc(F)cc2)nc1-c1ccc(F)cc1)N1CC(c2ccccn2)C1 [Example 7.02.72.] | 774
CC(C)c1ncc2c(n1)CCN(C(=O)Cn1nc(-c3ccc(F)cc3)nc1-c1ccc(F)cc1)C2 [Example 7.02.70.] | 376
O=C(Cn1nc(-c2ccc(F)cc2)nc1-c1ccc(F)cc1)N1CCN(Cc2ccccc2)C(=O)C1 [Example 7.03.007.] | 1380
COc1ccc2c(n1)CCN(C(=O)Cn1nc(-c3ccc(F)c(C)c3)nc1-c1ccccc1)CC2 [Example 7.02.83.] | 105
Cc1cc(-c2nc(-c3ccccc3)n(CC(=O)N3CCc4cn[nH]c4CC3)n2)ccc1F [Example 7.02.89.] | 194
O=C(Cn1nc(-c2ccc(F)cc2)nc1-c1ccc(F)cc1)N1CCN(c2cccc(F)c2)C(=O)C1 [Example 7.02.13.] | 544
O=C(Cn1nc(-c2ccc(F)cc2)nc1-c1ccc(F)cc1)N1CCC(n2nc(-c3cccs3)ccc2=O)CC1 [Example 7.02.31.] | 1780
COc1ncc2c(n1)CCN(C(=O)Cn1nc(-c3ccc(F)cc3)nc1-c1ccc(F)cc1)C2 [Example 7.02.60.] | 294
O=C(Cn1nc(-c2ccc(F)cc2)nc1-c1ccc(F)cc1)N1CCc2ncnc(-c3ccccc3)c2CC1 [Example 7.02.37.] | 708
O=C(Cn1nc(-c2ccc(F)cc2)nc1-c1ccc(F)cc1)N1CCC(c2noc3ccccc23)CC1 [Example 7.02.01., 1-(4-Benzo[d]isoxazol-3-yl-piperidin-1-yl)-2-(3,5-bis-(4-fluoro-phenyl)-(1,2,4)triazol-1-yl)-ethanone] | 178

Results, then the molecule that gave them:

EC50 [nM] | SMILES
269 | Cc1cc(-c2nc(CC(C)C)n(CC(=O)N3CCc4nc(N)sc4CC3)n2)ccc1F [Example 7.03.099.]
1090 | Cc1cc(-c2nc(C(C)C)n(CC(=O)N3CC=C(c4ccccn4)CC3)n2)ccc1F [Example 7.03.075.]
339 | O=C(Cn1nc(-c2ccc(F)cc2)nc1-c1ccc(F)cc1)N1CCN(c2nccc3occc23)CC1 [Example 07.03.137.]
63 | Cc1nc2c(s1)CCN(C(=O)Cn1nc(-c3ccc(F)c(C)c3)nc1C1CCCC1)CC2 [Example 7.03.107.]
420 | Cc1nc2c(s1)CCN(C(=O)Cn1nc(-c3ccc(F)c(C)c3)nc1C1CCC(C)CC1)CC2 (centres unmarked) [Example 7.03.090.]
255 | Cc1nc2c(s1)CN(C(=O)Cn1nc(-c3ccc(F)c(C)c3)nc1C1CCCCC1)C2 [Example 7.03.060.]
31 | Cc1nc2c(o1)CN(C(=O)Cn1nc(-c3ccc(F)c(C)c3)nc1-c1ccccc1)C2 [Example 7.03.123]
561 | O=C(Cn1nc(-c2ccc(F)cc2)nc1-c1ccc(F)cc1)N1CCc2nc(N3CCCCC3)sc2CC1 [Example 7.04.04.]
64 | Cc1cc(-c2nc(-c3ccc(F)c(C)c3)n(CC(=O)N3CCc4nc(N)sc4CC3)n2)ccc1F [Example 7.03.083.]
1890 | CCc1nc(-c2ccc(F)c(C)c2)nn1CC(=O)N1CCc2nc(N)sc2CC1 [Example 7.03.082.]
293 | CCCCc1nc(-c2ccc(F)c(C)c2)nn1CC(=O)N1CCc2nc(N)sc2CC1 [Example 7.03.102.]
498 | O=C(Cn1nc(-c2ccc(F)cc2)nc1-c1ccc(F)cc1)N1CCN(c2nccc3sccc23)CC1 [Example 07.03.136.]
161 | COc1cccc(N2CCN(C(=O)Cn3nc(-c4ccc(F)cc4)nc3-c3ccc(F)cc3)CC2=O)n1 [Example 7.03.041.]
50 | COc1nc2c(s1)CCN(C(=O)Cn1nc(-c3ccc(F)cc3)nc1-c1ccc(F)cc1)CC2 [Example 7.03.039.]
474 | CC(C)c1nnc(C2CCN(C(=O)Cn3nc(-c4ccc(F)cc4)nc3-c3ccc(F)cc3)CC2)o1 [Example 7.03.033.]
679 | COc1cccc(N2CCN(C(=O)Cn3nc(-c4ccc(F)c(C)c4)nc3C3CCCC3)CC2=O)c1 [Example 7.03.104.]

EC50 [nM] | SMILES
1440 | Nc1nc2c(s1)CCN(C(=O)Cn1nc(-c3ccccc3)nc1-c1ccccc1)CC2 [Example 7.03.049.]
52 | Cc1nc2c(s1)CCN(C(=O)Cn1nc(-c3ccc(F)c(C)c3)nc1-c1ccc(F)c(C)c1)CC2 [Example 7.03.084.]
346 | CN(C)c1nc2c(s1)CCN(C(=O)Cn1nc(-c3ccc(F)cc3)nc1-c1ccc(F)cc1)CC2 [Example 7.04.03.]
545 | COc1ccnc(C2=CCN(C(=O)Cn3nc(-c4ccc(F)c(C)c4)nc3C(C)C)CC2)c1 [Example 7.03.079.]
63 | COc1ccc(-c2nc(-c3ccc(F)cc3)n(CC(=O)N3CCc4nc(C)sc4CC3)n2)cc1 [Example 7.03.056.]
186 | COc1ccc2c(n1)CCN(C(=O)Cn1nc(-c3ccc(F)cc3)nc1-c1ccc(F)cc1)CC2 [Example 7.03.023.]
312 | Cc1nc2c(s1)C(C)CN(C(=O)Cn1nc(-c3ccc(F)cc3)nc1-c1ccc(F)cc1)CC2 (centres unmarked) [Example 7.03.037.]
201 | CCCCCc1nc(-c2ccc(F)c(C)c2)nn1CC(=O)N1Cc2nc(C)sc2C1 [Example 7.03.108.]
231 | Nc1nc2c(s1)CCN(C(=O)Cn1nc(-c3ccc(F)cn3)nc1-c1ccc(F)cc1)CC2 [Example 7.03.115.]
132 | CNc1nc2c(s1)CCN(C(=O)Cn1nc(-c3ccc(F)cc3)nc1-c1ccc(F)cc1)CC2 [Example 7.04.02.]
1680 | Cc1nc2c(s1)CN(C(=O)Cn1nc(-c3ccc(F)c(C)c3)nc1C1CCC(C)CC1)C2 (centres unmarked) [Example 7.03.091.]
104 | COc1ccc(-c2nc(-c3ccc(OC)cc3)n(CC(=O)N3Cc4nc(C)oc4C3)n2)cc1 [Example 7.03.133]
102 | Cc1nc2c(s1)CCN(C(=O)Cn1nc(-c3ccc(F)c(C)c3)nc1CCC(C)C)CC2 [Example 7.03.114.]
100 | COc1ccc(-c2nc(-c3ccc(F)cc3)n(CC(=O)N3CCc4nc(N)sc4CC3)n2)cc1 [Example 7.03.055.]
500 | COc1cc(C2=CCN(C(=O)Cn3nc(-c4ccc(F)c(C)c4)nc3C(C)C)CC2)ncn1 [Example 7.03.077.]
433 | Cc1nc2c(s1)CCN(C(=O)Cn1nc(-c3ccc(F)c(C)c3)nc1C1CCCCC1C)CC2 (centres unmarked) [Example 7.03.093.]
